Values quoted from earlier work as cited in patent US7399860B2, “Manufacture of polyglutamate-therapeutic agent conjugates” (Cell Therapeutics Inc., priority 1999, dated 2008).

System: tumor
Details: tumor-bearing hosts; U.S. Pat. No. 5,977,163; Li et al. 1998

## polyglutamic acid-paclitaxel conjugate
  efficacy compared with the unconjugated form of the drug: increased efficacy
